Earlier results, collected in patent US20230091170A1, “ENRICHMENT OF ANTIGEN-SPECIFIC ANTIBODIES FOR ANALYTIC AND THERAPEUTIC USE” (priority 2020, published 2023).
Where two headings read alike, the source gives them in different places.

For `O=C(O)CCCC[C@@H]1SC[C@@H]2NC(=O)N[C@@H]21` [Biotin], the “Serum concentration of biotin” value (after a single dose of 300 mg biotin) is listed as “up to 1160 ng/mL”, the “Normal circulating concentrations of biotin” value (derived from the diet and normal metabolism) is listed as less than 1.2 ng/mL and the “Serum concentration of biotin” value (within the first hour after ingestion, supplements of 20 mg biotin per day) is listed as “up to 355 ng/mL”.
